From PubChem BioAssay (NCI)
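Growth conditions: 96-well plates. Treatment: test compound, 48 hours, 5 concentrations. Analysis: linear interpolation between bracketing concentrations; unreached endpoints set to highest concentration. The concentration for 50% growth inhibition is given as GI50. TGI is the concentration that stops growth completely.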

Legend:
Assay in all cases: growth of human tumour cells (NCI), 48 h
NCI-H522 lung = tested on: NCI-H522 lung
SF-539 CNS = tested on: SF-539 CNS
786-0 renal = tested on: 786-0 renal
MOLT-4 leukemia = tested on: MOLT-4 leukemia
SF-295 CNS = tested on: SF-295 CNS
ACHN renal = tested on: ACHN renal
MALME-3M melanoma = tested on: MALME-3M melanoma
K-562 leukemia = tested on: K-562 leukemia
TK-10 renal = tested on: TK-10 renal

| Compound | TGI (NCI-H522 lung) | TGI (SF-539 CNS) | TGI (786-0 renal) | TGI (MOLT-4 leukemia) | TGI (SF-295 CNS) | TGI (ACHN renal) | TGI (MALME-3M melanoma) | TGI (K-562 leukemia) | TGI (TK-10 renal) | GI50 (NCI-H522 lung) | GI50 (SF-539 CNS) | GI50 (SF-295 CNS) | GI50 (ACHN renal) | GI50 (MALME-3M melanoma) | GI50 (K-562 leukemia) | GI50 (TK-10 renal) |
| --- | --- | --- | --- | --- | --- | --- | --- | --- | --- | --- | --- | --- | --- | --- | --- | --- |
| Cn1c(=O)cc(Nc2ccc(N)cc2)[nH]c1=O | > 100 µM | > 100 µM | > 100 µM | > 100 µM | > 100 µM | > 100 µM | > 100 µM | > 100 µM | > 100 µM |  |  |  |  |  |  |  |
| C/C(=N\O)c1cccc(Nc2c3ccccc3nc3occc23)c1 | 4.83 µM | 21.1 µM | 28.3 µM | > 100 µM | 26.7 µM | 38.6 µM | 9.7 µM | > 100 µM | 44.3 µM |  |  |  |  |  |  |  |
| OCC1OC(n2cnc3c(Cl)nc(Nc4ccc(Cl)c(Cl)c4)nc32)CC1O (stereo not given) | 18.1 µM |  | 19.4 µM | 12.5 µM | 19.3 µM | 19.9 µM | 21.2 µM | 49.4 µM | 35.6 µM |  |  |  |  |  |  |  |
| COC(=O)c1c2c(cc3c1CC1(C3)Cc3cc4c(c(C(=O)OC)c3C1)CCC4)CCC2 | > 100 µM | > 100 µM | > 100 µM | > 100 µM | > 100 µM | > 100 µM | > 100 µM | > 100 µM | > 100 µM |  |  |  |  |  |  |  |
| O=C1OC(c2ccccc2Br)=N/C1=C/c1ccccc1 | 72.2 µM | 37.9 µM |  | > 100 µM | > 100 µM | 77.5 µM | 45.5 µM | > 100 µM | > 100 µM |  |  |  |  |  |  |  |
| O=c1c2cc([N+](=O)[O-])ccc2n2n1CCCCC2 | > 100 µM | > 100 µM | > 100 µM | > 100 µM | > 100 µM | > 100 µM | > 100 µM | > 100 µM | > 100 µM |  |  |  |  |  |  |  |
| c1cc(CSc2ncnc3nc[nH]c23)ccn1 | > 100 µM | > 100 µM | > 100 µM | > 100 µM | > 100 µM | > 100 µM | > 100 µM | > 100 µM | > 100 µM |  |  |  |  |  |  |  |
| OC(Cc1cc(CC(O)(C(F)(F)F)C(F)(F)F)nc(CC(O)(C(F)(F)F)C(F)(F)F)c1)(C(F)(F)F)C(F)(F)F | 8.98 µM | 3.44 µM | 6.34 µM | > 10 µM | 2.58 µM | > 10 µM | 7.96 µM | > 10 µM | > 10 µM |  |  |  |  |  |  |  |
| CN(C)CC(C)(C)CN1c2ccccc2Sc2ccccc21 | 25.9 µM | 34.3 µM | 25.5 µM | 20.8 µM | 26.8 µM | 28.3 µM | 27.9 µM | 22.8 µM | 26.9 µM |  |  |  |  |  |  |  |
| CCCCCCCCCCCCCCCCCCOc1ccccc1COP(=O)(O)OOCC[N+](C)(C)C | 13.1 µM | 3.02 µM |  |  | 4.32 µM | 5.62 µM | 3.21 µM | 50 µM | 4.49 µM | 1.73 µM | 1.19 µM | 1.23 µM | 1.45 µM | 1.16 µM | 1.23 µM | 1.35 µM |
| CN1CCN(c2n[nH]c(=O)c3c2nnn3C2CCCCC2)CC1 | > 100 µM | > 100 µM | > 100 µM | > 100 µM | > 100 µM | > 100 µM | > 100 µM | > 100 µM | > 100 µM |  |  |  |  |  |  |  |
| O=C(/C=C/c1cccc(Br)c1)N1CCN(CCOC(c2ccccc2)c2ccccc2)CC1 | > 100 µM | 39.1 µM | > 100 µM | 30.8 µM | > 100 µM | > 100 µM | > 100 µM | 55 µM | > 100 µM |  |  |  |  |  |  |  |
| CC/C=C\C=C/C(=O)N/C=C/CCC | 36 µM | > 100 µM | > 100 µM | 95.6 µM |  | > 100 µM | > 100 µM | > 100 µM | > 100 µM |  |  |  |  |  |  |  |
| O=C(O)c1ccc(Nc2cnc3cc(C(F)(F)F)ccc3n2)cc1 | 60.6 µM | > 100 µM | > 100 µM | > 100 µM | > 100 µM | > 100 µM | > 100 µM | > 100 µM | > 100 µM |  |  |  |  |  |  |  |
| CCCCCCCCCCCCc1ccsc1-c1ccc(-c2ccc(-c3sccc3CCCCCCCCCCCC)s2)s1 | > 100 µM | > 100 µM | > 100 µM | > 100 µM | > 100 µM | > 100 µM |  | > 100 µM | > 100 µM |  |  |  |  |  |  |  |
| CC(=O)OCC1OC(O[C@H]2C=C[C@@H](C(=O)OCc3ccccc3)n3c(=O)n(-c4ccccc4)c(=O)n32)C(OC(C)=O)C(OC(C)=O)C1OC(C)=O (stereo not given in full) | 2.83 µM | 3.21 µM | 4.51 µM | 5.72 µM | 25.3 µM | 3.09 µM |  | 8.72 µM | 3.92 µM |  |  |  |  |  |  |  |
| CC(=O)Oc1cc(-c2oc3cc(OC(C)=O)c(C4OC(CO)C(O)C(O)C4O)c(OC(C)=O)c3c(=O)c2O)c(OC(C)=O)cc1O (stereo not given) | > 100 µM |  | > 100 µM | > 100 µM | > 100 µM | > 100 µM | > 100 µM | > 100 µM | > 100 µM |  |  |  |  |  |  |  |
| COc1ccc(C=O)cc1OS(=O)(=O)C(F)(F)C(F)(F)C(F)(F)C(F)(F)F | > 60.1 µM | 41 µM | > 84.1 µM | > 20 µM | 53 µM | > 100 µM | > 69 µM |  | > 82.9 µM |  |  |  |  |  |  |  |
| S=C(S)NCCN1CCNCC1 | 32.7 µM |  | 77 µM |  | > 100 µM | > 100 µM | 82.5 µM | > 100 µM | 58.4 µM |  |  |  |  |  |  |  |
| NC1NCCC(=O)N1CCc1c[nH]c2ccccc12 (stereo not given) | > 100 µM | 31.5 µM | 37.6 µM |  | 64.6 µM | 55.5 µM | 40.1 µM | 51 µM | 51.7 µM |  |  |  |  |  |  |  |
| COC(=O)Cc1c(C2C(CC(=O)OC)c3ccccc3N2C2OC(CO)C(O)C(O)C2O)[nH]c2ccccc12 (stereo not given) | > 100 µM |  |  | > 100 µM | > 100 µM |  | > 100 µM |  | > 100 µM |  |  |  |  |  |  |  |
| O=C1CN(c2ccccc2)C(=O)CN1NCNN1CC(=O)N(c2ccccc2)CC1=O | > 100 µM | > 100 µM | > 100 µM | > 100 µM | > 100 µM | > 100 µM | > 100 µM |  | > 100 µM |  |  |  |  |  |  |  |
| COC(=O)[C@H](Cc1ccccc1)NC(=O)N(CCNC(=O)OC(C)(C)C)c1ccccc1 | > 100 µM |  | > 100 µM | > 100 µM | > 100 µM | > 100 µM | > 100 µM | > 100 µM |  |  |  |  |  |  |  |  |
